From US5461067A, “Retroviral protease inhibiting compounds” (priority 1994, dated 1995)

Legend:
HIV-1 protease = HIV-1 protease (Human immunodeficiency virus type 1 group M subtype B, UniProt P04585); test: Fluorogenic assay for screening inhibitors of HIV protease; settings: for inhibition at 0.0005 µM: pH 4.5, read-out: Percent Inhibition
Description: The inhibitory potency of the compounds of the invention can be determined by the following method.
A compound of the invention is dissolved in DMSO and a small aliquot further diluted with DMSO to 100 times the final concentration desired for testing. The reaction is carried out in a 6×50 mm tube in a total volume of 300 microliters. The final concentrations of the components in the reaction buffer are: 125 mM sodium acetate, 1M sodium chloride, 5 mM dithiothreitol, 0.5 mg/ml bovine serum albumin, 1.3 μM fluorogenic substrate, 2% (v/v) dimethylsulfoxide, pH 4.5. After addition of inhibitor, the reaction mixture is placed in the fluorometer cell holder and incubated at 30° C. for several minutes. The reaction is initiated by the addition of a small aliquot of cold HIV protease. The fluorescence intensity (excitation 340 nm, emmision 490 nM) is recorded as a function of time. The reaction rate is determined for the first six to eight minutes. The observed rate is directly proportional to the moles of substrate cleaved per unit time. The percent inhibition is 100×(1-(rate in presence of inhibitor)/(rate in absence of inhibitor)).

[1] = Cytotoxicity in MT4 cells; format: cell-based; settings: human, concentration at which 50% of the cells remain viable, read-out: LC50 (the source's name)
Description: (§1) The IC50 is the concentration of compound that gives 50% inhibition of the cytopathic effect of HIV. The LC50 is the concentration of compound at which 50% of the cells remain viable.

HIV-13B in MT4 cells = test: Anti-HIV activity (inhibition of cytopathic effect of HIV) in MT4 cells; format: cell-based; settings: Human immunodeficiency virus 1, concentration giving 50% inhibition of cytopathic effect of HIV
Description: as §1

Row | SMILES | IC50 (HIV-1 protease) | inhibition at 0.0005 µM (HIV-1 protease) | CC50 [1] | IC50 (HIV-13B in MT4 cells)
1 | CC(C)[C@H](NC(=O)OCc1ccccn1)C(=O)N[C@@H](Cc1ccccc1)[C@@H](O)CN(Cc1ccccc1)NC(=O)OC(C)(C)C [Example 2E, 5S-N-((2-Pyridinyl)methoxycarbonyl)valinylamino-2-t-butyloxycarbonylamino-4S-hydroxy-1,6-diphenyl-2-azahexane] | 0.5 nM | 50% | 56 µM | 780 to 1230 nM
2 | COc1ccc(CN(C[C@H](O)[C@H](Cc2ccccc2)NC(=O)[C@@H](NC(=O)OCc2ccccn2)C(C)C)NC(=O)OCc2cccnc2)cc1 [Example 16, 5S-N-((2-Pyridinyl)methoxycarbonyl)-L-valinylamino-2-N-((3-pyridinyl)methoxycarbonyl)amino-4S-hydroxy-1-p-methoxyphenyl-6-phenyl-2-azahexane] | 0.5 nM | 50% | 57 µM | 200 to 270 nM
3 | CC(C)c1nc(CN(C)C(=O)N[C@H](C(=O)N[C@@H](Cc2ccccc2)[C@@H](O)CN(Cc2ccccc2)NC(=O)OC(C)(C)C)C(C)C)co1 [Example 9F, 5S-N-((N-Methyl-N-((2-isopropyl-4-oxazolyl)methyl)amino)carbonyl)-L-valinylamino-2-N-(t-butyloxycarbonyl)amino-4S-hydroxy-1,6-diphenyl-2-azahexane] |  | 61% | 19 µM | 460 to 1000 nM
4 | CC(C)[C@H](NC(=O)OCc1ccccn1)C(=O)N[C@@H](Cc1ccccc1)[C@@H](O)CN(Cc1ccccc1)NC(=O)OCc1cccnc1 [Example 5B, 5S-N-((2-Pyridinyl)methoxycarbonyl)valinylamino-2-((N-3-pyridinyl)methoxycarbonyl)amino-4S-hydroxy-1,6-diphenyl-2-azahexane] |  | 60% | > 100 µM | 150 to 260 nM
5 | CC(C)c1nc(CN(C)C(=O)N[C@H](C(=O)NN(Cc2ccccc2)C[C@H](O)[C@H](Cc2ccccc2)NC(=O)OCc2cncs2)C(C)C)co1 [Example 12, 5S-((5-Thiazolyl)methoxy)Carbonylamino-2-N-((N-methyl-N-((2-isopropyl-4-oxazolyl)methyl)amino)carbonyl)-L-valinylamino-4S-hydroxy-1,6-diphenyl-2-azahexane] |  | 78% | 53 µM | 100 to 105 nM
6 | CC(C)c1nc(CN(C)C(=O)N[C@H](C(=O)NN(Cc2ccccc2)C[C@H](O)[C@H](Cc2ccccc2)NC(=O)OCc2ccccc2)C(C)C)co1 [Example 11, 5S-(Benzyloxycarbonyl)amino-2-N-((N-methyl-N-((2-isopropyl-4-oxazolyl)methyl)amino)carbonyl)-L-valinylamino-4S-hydroxy-1,6-diphenyl-2-azahexane] |  | 69% | 18 µM | 230 nM
7 | CCc1cccc(CN(C)C(=O)N[C@H](C(=O)NN(Cc2ccccc2)C[C@H](O)[C@H](Cc2ccccc2)NC(=O)OCc2ccccc2)C(C)C)n1 [Example 10, 5S-(Benzyloxycarbonyl)amino-2-N-((N-methyl-N-((6-ethyl-2-pyridinyl)methyl)amino)carbonyl)-L-valinylamino-4S-hydroxy-1,6-diphenyl-2-azahexane] | 0.5 nM | 50% | 19 µM | 830 to 1100 nM
8 | CC(C)c1nc(CN(C)C(=O)N[C@H](C(=O)NN(Cc2ccccc2)C[C@H](O)[C@H](Cc2ccccc2)NC(=O)OCc2ccno2)C(C)C)co1 [Example 13D, 5S-N-((5-Isoxazolyl)methoxy)carbonylamino-2-N-((N-methyl-N-((2-isopropyl-4-oxazolyl)methyl)amino)carbonyl)-L-valinylamino-4S, hydroxy-1,6-diphenyl-2-azahexane] |  | 71% | 58 µM | 102 to 150 nM
